Where “and” joins values, the source holds several entries; their conditions need not be identical. Equal values may be shown once. Inconclusive results and toxic doses are left out. No stated cut-off is given here; in the data, active means T/C of 150% or more; inactive means T/C below 125%.
Test system: L1210 leukemia ip in BDF1 mice, survival T/C
Assay: NCI In Vivo Anticancer Drug Screen. Data for tumor model L1210 Leukemia (intraperitoneal) in B6D2F1 (BDF1) mice
Settings: endpoint: mean survival time, higher = longer survival
Outline: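 Transplanted-tumor mice were given test agent; controls received vehicle only. Survival readings from the two groups were divided (treated over control).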

[1] = dose: 100.0 mg/kg/injection, schedule: Q04DX003 (ip), vehicle: saline with Tween-80
[2] = dose: 200.0 mg/kg/injection, schedule: Q04DX003 (ip), vehicle: saline with Tween-80
[3] = dose: 400.0 mg/kg/injection, schedule: Q04DX003 (ip), vehicle: saline with Tween-80
[4] = dose: 100.0 mg/kg/injection, schedule: Q04DX002 (ip), vehicle: Klucel (hydroxypropylcellulose) (HPC)
[5] = dose: 200.0 mg/kg/injection, schedule: Q04DX002 (ip), vehicle: Klucel (hydroxypropylcellulose) (HPC)
[6] = dose: 400.0 mg/kg/injection, schedule: Q04DX002 (ip), vehicle: Klucel (hydroxypropylcellulose) (HPC)
[7] = dose: 100.0 mg/kg/injection, schedule: Q04DX003 (ip), vehicle: saline
[8] = dose: 200.0 mg/kg/injection, schedule: Q04DX003 (ip), vehicle: saline
[9] = dose: 400.0 mg/kg/injection, schedule: Q04DX003 (ip), vehicle: saline
[10] = dose: 12.5 mg/kg/injection, schedule: Q01DX009 (ip), vehicle: saline
[11] = dose: 25.0 mg/kg/injection, schedule: Q01DX009 (ip), vehicle: saline
[12] = dose: 100.0 mg/kg/injection, schedule: Q04DX003 (ip), vehicle: Klucel (hydroxypropylcellulose) (HPC)
[13] = dose: 200.0 mg/kg/injection, schedule: Q04DX003 (ip), vehicle: Klucel (hydroxypropylcellulose) (HPC)
[14] = dose: 400.0 mg/kg/injection, schedule: Q04DX003 (ip), vehicle: Klucel (hydroxypropylcellulose) (HPC)

Measured: T/C

CC(=O)c1cc(C)c(O)c(C)c1
inactive: dose: 50.0 mg/kg/injection, schedule: Q01DX001 (ip), vehicle: carboxymethylcellulose (CMC) 107 % of control | dose: 100.0 mg/kg/injection, schedule: Q01DX001 (ip), vehicle: carboxymethylcellulose (CMC) 89 % of control | dose: 200.0 mg/kg/injection, schedule: Q01DX001 (ip), vehicle: carboxymethylcellulose (CMC) 94 % of control | dose: 400.0 mg/kg/injection, schedule: Q01DX001 (ip), vehicle: carboxymethylcellulose (CMC) 91 % of control

COc1cc2c(c(OC)c1OC)CN(CC1COc3ccccc3O1)CC2 (stereo unspecified)
inactive: [1] 98 % of control | [2] 101 % of control | [3] 96 % of control

CCOc1ccc(NC(=O)Nc2ccccc2C(F)(F)F)cc1
inactive: dose: 100.0 mg/kg/injection, schedule: Q01DX009 (ip), vehicle: Klucel (hydroxypropylcellulose) (HPC) 89 % of control | dose: 200.0 mg/kg/injection, schedule: Q01DX009 (ip), vehicle: Klucel (hydroxypropylcellulose) (HPC) 96 % of control | dose: 400.0 mg/kg/injection, schedule: Q01DX009 (ip), vehicle: Klucel (hydroxypropylcellulose) (HPC) 100 % of control

Cc1cccc(SC(=O)Nc2ccc([N+](=O)[O-])cc2Cl)c1
inactive: [4] 100 % of control | [5] 116 % of control | [6] 92 % of control

CCOP(=O)(OCC)Oc1c(Cl)c(Cl)c(Cl)c(Cl)c1Cl
inactive: [4] 104 % of control | [5] 100 % of control | [6] 107 % of control

O=C1OCC(O)(c2ccccc2)C1c1ccccc1 (stereo unspecified)
inactive: dose: 55.0 mg/kg/injection, schedule: Q01DX Z (ip), vehicle: methylcellulose (MC) 98 % of control | dose: 83.0 mg/kg/injection, schedule: Q01DX Z (ip), vehicle: methylcellulose (MC) 118 % of control | dose: 125.0 mg/kg/injection, schedule: Q01DX Z (ip), vehicle: methylcellulose (MC) 104 % of control

O=C(OC(c1c(Cl)cccc1Cl)c1nccc2ccccc12)c1ccccc1 (stereo unspecified)
inactive: dose: 100.0 mg/kg/injection, schedule: Q01DX001 (ip), vehicle: steriod suspending solution 95 % of control | dose: 200.0 mg/kg/injection, schedule: Q01DX001 (ip), vehicle: steriod suspending solution 97 % of control | dose: 400.0 mg/kg/injection, schedule: Q01DX001 (ip), vehicle: steriod suspending solution 88 % of control

COc1ccc(NCCOc2ccccc2Br)cc1
inactive: dose: 100.0 mg/kg/injection, schedule: Q01DX009 (ip), vehicle: other 96 % of control | dose: 200.0 mg/kg/injection, schedule: Q01DX009 (ip), vehicle: other 96 % of control | dose: 400.0 mg/kg/injection, schedule: Q01DX009 (ip), vehicle: other 104 % of control

FC(F)(F)c1ccc2c(c1)C1c3ccccc3C2c2ccccc21
inactive: dose: 100.0 mg/kg/injection, schedule: Q01DX009 (ip), vehicle: saline 98 % of control | [7] 100 % of control | dose: 200.0 mg/kg/injection, schedule: Q01DX009 (ip), vehicle: saline 100 % of control | [8] 98 % of control | dose: 400.0 mg/kg/injection, schedule: Q01DX009 (ip), vehicle: saline 91 % of control | [9] 100 % of control

NCC(S)c1ccc(Cl)cc1 (stereo unspecified)
inactive: [10] 114 % of control | [11] 101 % of control | dose: 50.0 mg/kg/injection, schedule: Q01DX009 (ip), vehicle: saline 97 % of control

CC(=O)OCCNc1ccc([N+](=O)[O-])cc1[N+](=O)[O-]
inactive: dose: 100.0 mg/kg/injection, schedule: Q01DX009 (ip), vehicle: acetone 109 % of control | [7] 101 % of control | dose: 200.0 mg/kg/injection, schedule: Q01DX009 (ip), vehicle: acetone 97 % of control | [8] 103 % of control | dose: 400.0 mg/kg/injection, schedule: Q01DX009 (ip), vehicle: acetone 112 % of control | [9] 95 % of control

O=c1[nH]cc(CC(F)C(F)(F)F)c(=O)[nH]1 (stereo unspecified)
inactive: dose: 60.0 mg/kg/injection, schedule: Q01DX001 (ip), vehicle: DMSO 91 % of control | dose: 120.0 mg/kg/injection, schedule: Q01DX001 (ip), vehicle: DMSO 105 % of control

CCCCNC(=O)Nc1ccccc1
inactive: [12] 100 % of control | [13] 112 % of control | [14] 96 % of control

O=C(c1ccccc1)c1ccc(O)c([N+](=O)[O-])c1
inactive: dose: 25.0 mg/kg/injection, schedule: Q04DX002 (ip), vehicle: Klucel (hydroxypropylcellulose) (HPC) 113 % of control | dose: 50.0 mg/kg/injection, schedule: Q04DX002 (ip), vehicle: Klucel (hydroxypropylcellulose) (HPC) 100 % of control | [4] 90 % of control

CCCCOP1(=O)C=C(C)CC1 (stereo unspecified)
inactive: [1] 90 % of control | [2] 97 % of control | [3] 92 % of control

Cc1ccc(O)c(S(=O)(=O)F)c1
inactive: [12] 104 % of control | [13] 102 % of control | [14] 102 % of control

CN=C(NC)c1ccc(NC(=O)c2cc(OC)cc(C(=O)Nc3ccc(C(=NC)NC)cc3)c2)cc1
inactive: dose: 3.75 mg/kg/injection, schedule: Q01DX Z (ip), vehicle: saline 100 % of control | dose: 7.5 mg/kg/injection, schedule: Q01DX Z (ip), vehicle: saline 98 % of control | dose: 15.0 mg/kg/injection, schedule: Q01DX Z (ip), vehicle: saline 98 % of control

CC[P+](CC)(CC)c1ccccc1
inactive: dose: 6.0 mg/kg/injection, schedule: Q04DX003 (ip), vehicle: saline 103 % of control | dose: 6.25 mg/kg/injection, schedule: Q01DX009 (ip), vehicle: saline 100 % of control | dose: 12.0 mg/kg/injection, schedule: Q04DX003 (ip), vehicle: saline 107 % of control | [10] 100 % of control | dose: 25.0 mg/kg/injection, schedule: Q01DX009 (ip), vehicle: Klucel (hydroxypropylcellulose) (HPC) 100 % of control | [11] 110 % of control | dose: 25.0 mg/kg/injection, schedule: Q04DX003 (ip), vehicle: saline 96 % of control and 92 % of control

CCCCSc1n[nH]c(=O)[nH]c1=O
inactive: dose: 100.0 mg/kg/injection, schedule: Q01DX001 (ip), vehicle: saline 113 % of control | dose: 200.0 mg/kg/injection, schedule: Q01DX001 (ip), vehicle: saline 92 % of control | dose: 400.0 mg/kg/injection, schedule: Q01DX001 (ip), vehicle: saline 95 % of control

O=c1[nH]nc(N/N=C/c2ccccc2)n1/N=C/c1ccccc1
inactive: [12] 100 % of control | [13] 96 % of control | [14] 94 % of control

Cc1cc(N(C)C)cc(C)c1N=Nc1cc[n+]([O-])cc1
inactive: dose: 12.5 mg/kg/injection, schedule: Q04DX003 (ip), vehicle: saline with Tween-80 98 % of control | dose: 25.0 mg/kg/injection, schedule: Q04DX003 (ip), vehicle: saline with Tween-80 98 % of control | dose: 50.0 mg/kg/injection, schedule: Q01DX009 (ip), vehicle: saline with Tween-80 95 % of control | dose: 50.0 mg/kg/injection, schedule: Q04DX003 (ip), vehicle: saline with Tween-80 100 % of control | dose: 100.0 mg/kg/injection, schedule: Q01DX009 (ip), vehicle: saline with Tween-80 91 % of control | dose: 200.0 mg/kg/injection, schedule: Q01DX009 (ip), vehicle: saline with Tween-80 91 % of control

— PubChem BioAssay AID248 (DTP/NCI, 2004)
